# Results taken from patent US11267811B2, “Small molecule inhibitors of galectin-3” (BRISTOL-MYERS SQUIBB COMPANY, priority 2017, dated 2022).
# pIC50: −log10 of the molar value.
# Molecular target: His-tagged recombinant human Gal-3 (hGal-3) (Homo sapiens (Human), UniProt P17931)
# Test: Gal-3 HTRF assay (His-tagged hGal-3 binding to B-ASF);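 note: compounds preincubated 30 min with hGal-3, then 1 h with B-ASF, detection via terbium anti-His antibody and streptavidin d2. Control with B-ASF counts as full signal, omitting B-ASF as background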
# Settings: HTRF, hGal-3 15 nM, B-ASF 15 nM; read-out: hGal-3 IC50
# His-tagged recombinant human Gal-3 (hGal-3), sequence (P17931 whole entry): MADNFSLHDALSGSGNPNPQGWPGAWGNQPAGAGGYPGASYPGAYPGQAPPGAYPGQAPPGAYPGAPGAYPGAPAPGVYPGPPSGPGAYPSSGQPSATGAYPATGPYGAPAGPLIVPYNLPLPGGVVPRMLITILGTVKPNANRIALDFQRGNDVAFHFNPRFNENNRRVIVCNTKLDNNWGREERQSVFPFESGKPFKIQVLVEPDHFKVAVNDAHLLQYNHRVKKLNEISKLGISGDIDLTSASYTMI
row,Compound,pIC50
1,"O=C(NCCN1CCOCC1)c1nnc([C@@H]2O[C@H](CO)[C@H](O)[C@H](n3cc(-c4cccc(F)c4)nn3)[C@H]2O)o1 [Example 299, 5-((2R,3R,4S,5R,6R)-4-(4-(3-fluorophenyl)-1H-1,2,3-triazol-1-yl)-3,5-dihydroxy-6-(hydroxymethyl)tetrahydro-2H-pyran-2-yl)-N-(2-morpholinoethyl)-1,3,4-oxadiazole-2-carboxamide]",4.97
2,"Cc1nc([C@@H]2O[C@H](CO)[C@H](O)[C@H](n3cc(-c4cccc(F)c4)nn3)[C@H]2O)oc1CO [Example 300, (2R,3R,4S,5R,6R)-4-(4-(3-fluorophenyl)-1H-1,2,3-triazol-1-yl)-2-(hydroxymethyl)-6-(5-(hydroxymethyl)-4-methyloxazol-2-yl)tetrahydro-2H-pyran-3,5-diol]",5.03
3,"Cc1nc([C@@H]2O[C@H](CO)[C@H](O)[C@H](n3cc(-c4cccc(F)c4)nn3)[C@H]2O)oc1C(=O)O [Example 301, 2-((2R,3R,4S,5R,6R)-4-(4-(3-fluorophenyl)-1H-1,2,3-triazol-1-yl)-3,5-dihydroxy-6-(hydroxymethyl)tetrahydro-2H-pyran-2-yl)-4-methyloxazole-5-carboxylic acid]",5.20

# The next lines start with the values.
row,pIC50,Compound
1,7.28,"Cc1nc2ccc(-n3cnnc3[C@@H]3O[C@H](CO)[C@H](O)[C@H](n4cc(-c5cc(F)c(Br)c(F)c5)nn4)[C@H]3OCC(F)F)cc2s1 [Example 321, (2R,3R,4S,5R,6S)-4-(4-(4-bromo-3,5-difluorophenyl)-1H-1,2,3-triazol-1-yl)-5-(2,2-difluoroethoxy)-2-(hydroxymethyl)-6-(4-(2-methylbenzo[d]thiazol-6-yl)-4H-1,2,4-triazol-3-yl)tetrahydro-2H-pyran-3-ol]"
2,7.14,"Cc1nc2ccc(-n3cnnc3[C@@H]3O[C@H](CO)[C@H](O)[C@H](n4cc(-c5ccc(Br)c(F)c5)nn4)[C@H]3OCC(F)F)cc2s1 [Example 322, (2R,3R,4S,5R,6S)-4-(4-(4-bromo-3-fluorophenyl)-1H-1,2,3-triazol-1-yl)-5-(2,2-difluoroethoxy)-2-(hydroxymethyl)-6-(4-(2-methylbenzo[d]thiazol-6-yl)-4H-1,2,4-triazol-3-yl)tetrahydro-2H-pyran-3-ol]"
3,6.89,"OC[C@H]1O[C@@H](c2nncn2-c2cc(Cl)cc3cccnc23)[C@H](OCC(F)F)[C@@H](n2cc(-c3ccc(Br)c(F)c3)nn2)[C@H]1O [Example 323, (2R,3R,4S,5R,6S)-4-(4-(4-bromo-3-fluorophenyl)-1H-1,2,3-triazol-1-yl)-6-(4-(6-chloroquinolin-8-yl)-4H-1,2,4-triazol-3-yl)-5-(2,2-difluoroethoxy)-2-(hydroxymethyl)tetrahydro-2H-pyran-3-ol]"
4,7.70,"Cc1nnc([C@@H]2O[C@H](CO)[C@H](O)[C@H](n3cc(-c4ccc(Br)c(F)c4)nn3)[C@H]2OCC(F)F)n1-c1cc(Cl)ccc1C(F)(F)F [Example 325, (2R,3R,4S,5R,6S)-4-(4-(4-bromo-3-fluorophenyl)-1H-1,2,3-triazol-1-yl)-6-(4-(5-chloro-2-(trifluoromethyl)phenyl)-5-methyl-4H-1,2,4-triazol-3-yl)-5-(2,2-difluoroethoxy)-2-(hydroxymethyl)tetrahydro-2H-pyran-3-ol]"
5,7.36,"OC[C@H]1O[C@@H](c2nncn2-c2cc(Cl)ccc2Cl)[C@H](O)[C@@H](n2cc(-c3cc(F)c(Cl)c(F)c3)nn2)[C@H]1O [Example 326, (2S,3R,4R,5R,6R)-4-(4-(4-chloro-3,5-difluorophenyl)-1H-1,2,3-triazol-1-yl)-2-(4-(2,5-dichlorophenyl)-4H-1,2,4-triazol-3-yl)-6-(hydroxymethyl)tetrahydro-2H-py ran-3,5-diol]"
6,7.48,"Cc1nc([C@@H]2O[C@H](CO)[C@H](O)[C@H](n3cc(-c4ccc(Cl)c(Cl)c4)nn3)[C@H]2O)n(-c2cc(Cl)ccc2C(F)(F)F)n1 [Example A3, (2S,3R,4R,5R,6R)-2-(1-(5-Chloro-2-(trifluoromethyl)phenyl)-3-methyl-1H-1,2,4-triazol-5-yl)-4-(4-(3,4-dichlorophenyl)-1H-1,2,3-triazol-1-yl)-6-(hydroxymethyl)tetrahydro-2H-pyran-3,5-diol]"
7,7.24,"Cc1nc2ccc(-n3nc(C(F)(F)F)nc3[C@@H]3O[C@H](CO)[C@H](O)[C@H](n4cc(-c5cc(F)c(F)c(F)c5)nn4)[C@H]3O)cc2s1 [Example A4, (2R,3R,4R,5R,6S)-2-(Hydroxymethyl)-6-(1-(2-methylbenzo[d]thiazol-6-yl)-3-(trifluoromethyl)-1H-1,2,4-triazol-5-yl)-4-(4-(3,4,5-trifluorophenyl)-1H-1,2,3-triazol-1-yl)tetrahydro-2H-pyran-3,5-diol]"

# Same assay, conditions: read-out: hGal3 IC50
row,Compound,pIC50
1,Cc1nc2ccc(-n3cnnc3[C@@H]3O[C@H](CO)[C@H](O)[C@H](n4cc(-c5cc(F)c(Cl)c(F)c5)nn4)[C@H]3O)cc2s1 [Example 302],7.55
2,Cc1nc2ccc(-n3cnnc3[C@@H]3O[C@H](CO)[C@H](O)[C@H](n4cc(-c5ccc(Cl)c(F)c5)nn4)[C@H]3O)cc2s1 [Example 303],7.64
3,OC[C@H]1O[C@@H](c2nncn2-c2cc(Cl)ccc2Cl)[C@H](O)[C@@H](n2cc(-c3ccc(Cl)c(F)c3)nn2)[C@H]1O [Example 304],7.17
4,Cc1nc2ccc(-n3c(C)nnc3[C@@H]3O[C@H](CO)[C@H](O)[C@H](n4cc(-c5ccc(Cl)c(F)c5)nn4)[C@H]3O)cc2s1 [Example 305],7.51
5,Cc1nc2ccc(-n3c(C)nnc3[C@@H]3O[C@H](CO)[C@H](O)[C@H](n4cc(-c5cc(F)c(Cl)c(F)c5)nn4)[C@H]3O)cc2s1 [Example 306],7.46
6,CO[C@@H]1[C@@H](n2cc(-c3cc(F)c(Cl)c(F)c3)nn2)[C@@H](O)[C@@H](CO)O[C@H]1c1nncn1-c1cc(Cl)ccc1C(F)(F)F [Example 308],7.66
7,OC[C@H]1O[C@@H](c2nncn2-c2cc(Cl)ccc2C(F)(F)F)[C@H](O)[C@@H](n2cc(-c3ccc(Cl)c(F)c3)nn2)[C@H]1O [Example 309],7.70
8,CO[C@@H]1[C@@H](n2cc(-c3cc(F)c(Cl)c(F)c3)nn2)[C@@H](O)[C@@H](CO)O[C@H]1c1nnc(C)n1-c1cc(Cl)ccc1C(F)(F)F [Example 310],7.66
9,Cc1nnc([C@@H]2O[C@H](CO)[C@H](O)[C@H](n3cc(-c4cc(F)c(Cl)c(F)c4)nn3)[C@H]2O)n1-c1cc(Cl)ccc1C(F)(F)F [Example 311],7.92

# Other lines, results leading:
row,pIC50,Compound
1,5.80,N#Cc1ccc(Cl)cc1-n1cnnc1[C@@H]1O[C@H](CO)[C@H](O)[C@H](n2cc(-c3cc(F)c(Cl)c(F)c3)nn2)[C@H]1O [Example 312]
2,8.06,Cc1nnc([C@@H]2O[C@H](CO)[C@H](O)[C@H](n3cc(-c4cc(F)c(Br)c(F)c4)nn3)[C@H]2O)n1-c1cc(Cl)ccc1C(F)(F)F [Example 313]
3,7.24,Cc1nc2ccc(-n3c([C@@H]4O[C@H](CO)[C@H](O)[C@H](n5cc(-c6cc(F)c(Br)c(F)c6)nn5)[C@H]4O)nnc3C(F)(F)F)cc2s1 [Example 314]
4,6.01,Cc1nc2ccc(-n3c([C@@H]4O[C@H](CO)[C@H](O)[C@H](n5cc(-c6ccc(Br)c(F)c6)nn5)[C@H]4O)nnc3C(F)(F)F)cc2s1 [Example 315]
5,7.96,Cc1nnc([C@@H]2O[C@H](CO)[C@H](O)[C@H](n3cc(-c4cc(F)c(Br)c(F)c4)nn3)[C@H]2O)n1-c1cc(Cl)cc2cccnc12 [Example 318]
6,7.85,Cc1nnc([C@@H]2O[C@H](CO)[C@H](O)[C@H](n3cc(-c4cc(F)c(Cl)c(F)c4)nn3)[C@H]2O)n1-c1cc(Cl)cc2cccnc12 [Example 319]
